Target: Coagulation factor X (Homo sapiens, UniProt P00742)
Assay: Inhibition of human Coagulation factor X was determined

Chain of Coagulation factor X (P00742 41-179 limits assumed): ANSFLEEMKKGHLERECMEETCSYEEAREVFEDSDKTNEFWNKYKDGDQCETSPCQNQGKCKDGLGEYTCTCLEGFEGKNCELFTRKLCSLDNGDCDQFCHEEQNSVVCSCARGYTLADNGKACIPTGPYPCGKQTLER
Chain of Coagulation factor X (P00742 235-488 limits assumed): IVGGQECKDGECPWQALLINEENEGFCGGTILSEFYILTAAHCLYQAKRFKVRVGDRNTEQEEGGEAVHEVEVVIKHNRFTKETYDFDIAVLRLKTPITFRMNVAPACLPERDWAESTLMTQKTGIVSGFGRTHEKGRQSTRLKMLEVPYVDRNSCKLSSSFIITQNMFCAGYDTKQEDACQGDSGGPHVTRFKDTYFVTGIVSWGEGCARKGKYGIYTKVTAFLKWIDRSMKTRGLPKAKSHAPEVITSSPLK

Row | Ki [nM] | SMILES
1 | 1400 | CC(=O)Cc1cccc(Oc2nc(Oc3cccc(C(=N)N)c3)c(F)c(C)c2F)c1
2 | 810 | CN1CC(C)(C)N=C1c1cccc(Oc2cc(C(=O)O)cc(Oc3cc(C(=N)N)ccc3O)n2)c1
3 | 2100 | Cc1c(F)c(Oc2cccc(CC(=O)C(C)C)c2)nc(Oc2cccc(C(=N)N)c2)c1F
4 | 650 | Cc1c(F)c(Oc2cccc(C(=N)N)c2)nc(Oc2cccc(N3CCCCC3)c2)c1F

From ChEMBL document CHEMBL1145939, “Analyses of activity for factor Xa inhibitors based on Monte Carlo simulations” (J Med Chem, 2003)
